Experimental data: patent publication US11753407B2, “Compounds for treating spinal muscular atrophy” (PTC Therapeutics, Inc., priority 2012, dated 2023)

Legend:
[1] = tested on: SMN2 minigene mRNA (SMN2-A minigene) in HEK293H cells; assay: SMN2 minigene mRNA splicing RT-qPCR assay in cultured cells; assay type: cell-based, human; details: Homo sapiens, HEK293-H; concentration increasing full length SMN2 mRNA 1.5-fold relative to vehicle-treated cells; HEK293H cells with SMN2-A minigene, 24 hours, 7-point concentration data; read-out: EC1.5x for production of full length SMN2 mRNA
Procedure, shortened: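 HEK293H cells stably carrying SMN2-A minigene treated with compounds (7-point, 3.16-fold dilutions, duplicates) for 24 h at 37 °C. Full-length exon 7-containing minigene mRNA measured by multiplex RT-qPCR with GAPDH, normalized and expressed relative to vehicle (modified ΔΔCt); EC1.5× is concentration giving 1.5-fold increase.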

[2] = tested on: Smn protein in SMA patient fibroblast cells (GM03813); assay: Smn protein assay in cultured cells (SMN HTRF); assay type: cell-based, human; details: SMA patient fibroblast cells, 48 hours; for EC1.5x for Smn protein expression: 7-point concentration curve, SMN HTRF, concentration producing 1.5 times Smn protein vs DMSO vehicle control; for maximum fold (Fold) increase of Smn protein: 7-point concentration data, fold relative to vehicle control
Procedure, shortened: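 SMA patient fibroblasts (5,000/well, DMEM-10% FBS) treated 48 h at 37° C with 7-point, 3.16-fold compound series in triplicate; lysates read by SMN HTRF (665/620 nm ratio). Fold Smn increase over DMSO vehicle derived; EC1.5× is concentration giving 1.5-fold Smn, with maximum fold also reported.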

SMILES: CCc1nc(C)cn2nc(-c3cc(=O)n4cc(N5CCN(CCO)[C@H](C)C5)ccc4n3)cc12 [Compound 632, 2-(4-ethyl-6-methylpyrazolo[1,5-a]pyrazin-2-yl)-7-[(3R)-4-(2-hydroxyethyl)-3-methylpiperazin-1-yl]-4H-pyrido[1,2-a]pyrimidin-4-one]
- melting point: 238 to 241 °C
- EC (1.5-fold increase) [1]: < 0.1 µM
- EC1.5x for Smn protein expression [2]: **** (an EC1.5x≤0.3 μM is indicated by four stars (****))
- maximum fold (Fold) increase of Smn protein [2]: ***** (a fold increase >1.65 is indicated by five stars (*****))

SMILES: CCc1nc(C)cn2nc(-c3cc(=O)n4cc(N5C[C@@H](C)N[C@@H](C)C5)ccc4n3)cc12 [Compound 633, 7-[(3R,5S)-3,5-dimethylpiperazin-1-yl]-2-(4-ethyl-6-methylpyrazolo[1,5-a]pyrazin-2-yl)-4H-pyrido[1,2-a]pyrimidin-4-one]
- melting point: 258 to 260 °C
- EC (1.5-fold increase) [1]: < 0.1 µM
- EC1.5x for Smn protein expression [2]: **** (an EC1.5x≤0.3 μM is indicated by four stars (****))
- maximum fold (Fold) increase of Smn protein [2]: ***** (a fold increase >1.65 is indicated by five stars (*****))

SMILES: CCc1nc(C)cn2nc(-c3cc(=O)n4cc(N5CCC(N6CCCC6)CC5)ccc4n3)cc12 [Compound 634, 2-(4-ethyl-6-methylpyrazolo[1,5-a]pyrazin-2-yl)-7-[4-(pyrrolidin-1-yl)piperidin-1-yl]-4H-pyrido[1,2-a]pyrimidin-4-one]
- melting point: 229 to 232 °C
- EC (1.5-fold increase) [1]: < 0.1 µM
- EC1.5x for Smn protein expression [2]: **** (an EC1.5x≤0.3 μM is indicated by four stars (****))
- maximum fold (Fold) increase of Smn protein [2]: ***** (a fold increase >1.65 is indicated by five stars (*****))

SMILES: CCc1nc(C)cn2nc(-c3cc(=O)n4cc(N5CCN[C@@H](C)C5)ccc4n3)cc12 [Compound 635, 2-(4-ethyl-6-methylpyrazolo[1,5-a]pyrazin-2-yl)-7-[(3S)-3-methylpiperazin-1-yl]-4H-pyrido[1,2-a]pyrimidin-4-one]
- melting point: 202 to 204 °C
- EC (1.5-fold increase) [1]: < 0.1 µM
- EC1.5x for Smn protein expression [2]: **** (an EC1.5x≤0.3 μM is indicated by four stars (****))
- maximum fold (Fold) increase of Smn protein [2]: ***** (a fold increase >1.65 is indicated by five stars (*****))

SMILES: CCc1nc(C)cn2nc(-c3cc(=O)n4cc(N5CCCN(C)CC5)ccc4n3)cc12 [Compound 636, 2-(4-ethyl-6-methylpyrazolo[1,5-a]pyrazin-2-yl)-7-(4-methyl-1,4-diazepan-1-yl)-4H-pyrido[1,2-a]pyrimidin-4-one]
- melting point: 175 to 180 °C
- EC (1.5-fold increase) [1]: < 0.1 µM
- EC1.5x for Smn protein expression [2]: **** (an EC1.5x≤0.3 μM is indicated by four stars (****))
- maximum fold (Fold) increase of Smn protein [2]: ***** (a fold increase >1.65 is indicated by five stars (*****))

SMILES: CCc1cc(-c2cc(=O)n3cc(N4CCNCC4)ccc3n2)cn2cc(C)nc12 [Compound 637, 2-(8-ethyl-2-methylimidazo[1,2-a]pyridin-6-yl)-7-(piperazin-1-yl)-4H-pyrido[1,2-a]pyrimidin-4-one]
- melting point: 264 to 271 °C
- EC (1.5-fold increase) [1]: < 0.1 µM
- EC1.5x for Smn protein expression [2]: **** (an EC1.5x≤0.3 μM is indicated by four stars (****))
- maximum fold (Fold) increase of Smn protein [2]: ***** (a fold increase >1.65 is indicated by five stars (*****))

SMILES: CCc1cc(-c2cc(=O)n3cc(N4CCN[C@H](C)C4)ccc3n2)cn2cc(C)nc12 [Compound 638, 2-(8-ethyl-2-methylimidazo[1,2-a]pyridin-6-yl)-7-[(3R)-3-methylpiperazin-1-yl]-4H-pyrido[1,2-a]pyrimidin-4-one]
- melting point: 230 to 234 °C
- EC (1.5-fold increase) [1]: < 0.1 µM
- EC1.5x for Smn protein expression [2]: **** (an EC1.5x≤0.3 μM is indicated by four stars (****))
- maximum fold (Fold) increase of Smn protein [2]: ***** (a fold increase >1.65 is indicated by five stars (*****))

SMILES: CCc1cc(-c2cc(=O)n3cc(N4CCN[C@@H](C)C4)ccc3n2)cn2cc(C)nc12 [Compound 639, 2-(8-ethyl-2-methylimidazo[1,2-a]pyridin-6-yl)-7-[(3S)-3-methylpiperazin-1-yl]-4H-pyrido[1,2-a]pyrimidin-4-one]
- melting point: 232 to 236 °C
- EC (1.5-fold increase) [1]: < 0.1 µM
- EC1.5x for Smn protein expression [2]: **** (an EC1.5x≤0.3 μM is indicated by four stars (****))
- maximum fold (Fold) increase of Smn protein [2]: ***** (a fold increase >1.65 is indicated by five stars (*****))

SMILES: Cc1cn2nc(-c3cc(=O)n4cc(C5CCN(C(C)C)CC5)ccc4n3)cc2c(C)n1 [Compound 640, 2-(4,6-dimethylpyrazolo[1,5-a]pyrazin-2-yl)-7-[1-(propan-2-yl)piperidin-4-yl]-4H-pyrido[1,2-a]pyrimidin-4-one]
- melting point: 196 to 198 °C
- EC (1.5-fold increase) [1]: < 0.1 µM
- EC1.5x for Smn protein expression [2]: **** (an EC1.5x≤0.3 μM is indicated by four stars (****))
- maximum fold (Fold) increase of Smn protein [2]: **** (a fold increase between >1.5 and ≤1.65 is indicated by four stars (****))

SMILES: Cc1cn2nc(-c3cc(=O)n4cc(C5CCN(C6CC6)CC5)ccc4n3)cc2c(C)n1 [Compound 641, 7-(1-cyclopropylpiperidin-4-yl)-2-(4,6-dimethylpyrazolo[1,5-a]pyrazin-2-yl)-4H-pyrido[1,2-a]pyrimidin-4-one]
- melting point: 180 to 183 °C
- EC (1.5-fold increase) [1]: < 0.1 µM
- EC1.5x for Smn protein expression [2]: **** (an EC1.5x≤0.3 μM is indicated by four stars (****))
- maximum fold (Fold) increase of Smn protein [2]: ***** (a fold increase >1.65 is indicated by five stars (*****))

SMILES: Cc1cn2nc(-c3cc(=O)n4cc(C5CCN(C6CCC6)CC5)ccc4n3)cc2c(C)n1 [Compound 642, 7-(1-cyclobutylpiperidin-4-yl)-2-(4,6-dimethylpyrazolo[1,5-a]pyrazin-2-yl)-4H-pyrido[1,2-a]pyrimidin-4-one]
- melting point: 189 to 191 °C
- EC (1.5-fold increase) [1]: < 0.1 µM
- EC1.5x for Smn protein expression [2]: **** (an EC1.5x≤0.3 μM is indicated by four stars (****))
- maximum fold (Fold) increase of Smn protein [2]: ***** (a fold increase >1.65 is indicated by five stars (*****))

SMILES: CCc1nc(C)cn2nc(-c3cc(=O)n4cc(N5CCN(C(C)C)[C@H](C)C5)ccc4n3)cc12 [Compound 643, 2-(4-ethyl-6-methylpyrazolo[1,5-a]pyrazin-2-yl)-7-[(3R)-3-methyl-4-(propan-2-yl)piperazin-1-yl]-4H-pyrido[1,2-a]pyrimidin-4-one]
- melting point: 242 to 244 °C
- EC (1.5-fold increase) [1]: 0.1 to 0.3 µM
- EC1.5x for Smn protein expression [2]: *** (an EC1.5× between >0.3 μM and ≤1 μM is indicated by three stars (***))
- maximum fold (Fold) increase of Smn protein [2]: ***** (a fold increase >1.65 is indicated by five stars (*****))

SMILES: CCc1nc(C)cn2nc(-c3cc(=O)n4cc(N5CCN(C6CC6)[C@H](C)C5)ccc4n3)cc12 [Compound 644, 7-[(3R)-4-cyclopropyl-3-methylpiperazin-1-yl]-2-(4-ethyl-6-methylpyrazolo[1,5-a]pyrazin-2-yl)-4H-pyrido[1,2-a]pyrimidin-4-one]
- melting point: 244 to 247 °C
- EC (1.5-fold increase) [1]: 0.1 to 0.3 µM
- EC1.5x for Smn protein expression [2]: *** (an EC1.5× between >0.3 μM and ≤1 μM is indicated by three stars (***))
- maximum fold (Fold) increase of Smn protein [2]: ***** (a fold increase >1.65 is indicated by five stars (*****))

SMILES: CCc1nc(C)cn2nc(-c3cc(=O)n4cc(N5CCN(C6CCC6)[C@H](C)C5)ccc4n3)cc12 [Compound 645, 7-[(3R)-4-cyclobutyl-3-methylpiperazin-1-yl]-2-(4-ethyl-6-methylpyrazolo[1,5-a]pyrazin-2-yl)-4H-pyrido[1,2-a]pyrimidin-4-one]
- melting point: 261 to 264 °C
- EC (1.5-fold increase) [1]: < 0.1 µM
- EC1.5x for Smn protein expression [2]: **** (an EC1.5x≤0.3 μM is indicated by four stars (****))
- maximum fold (Fold) increase of Smn protein [2]: ***** (a fold increase >1.65 is indicated by five stars (*****))

SMILES: CCc1nc(C)cn2nc(-c3cc(=O)n4cc(N5CCN(C6COC6)[C@H](C)C5)ccc4n3)cc12 [Compound 646, 2-(4-ethyl-6-methylpyrazolo[1,5-a]pyrazin-2-yl)-7-[(3R)-3-methyl-4-(oxetan-3-yl)piperazin-1-yl]-4H-pyrido[1,2-a]pyrimidin-4-one]
- melting point: 216 to 219 °C
- EC (1.5-fold increase) [1]: 0.3 to 1 µM
- EC1.5x for Smn protein expression [2]: ** (an EC1.5× between >1 μM and ≤3 μM is indicated by two stars (**))
- maximum fold (Fold) increase of Smn protein [2]: ***** (a fold increase >1.65 is indicated by five stars (*****))

SMILES: CCc1cc(-c2cc(=O)n3cc(N4CCN(CCO)CC4)ccc3n2)cn2cc(C)nc12 [Compound 647, 2-(8-ethyl-2-methylimidazo[1,2-a]pyridin-6-yl)-7-[4-(2-hydroxyethyl)piperazin-1-yl]-4H-pyrido[1,2-a]pyrimidin-4-one]
- melting point: 248 to 253 °C
- EC (1.5-fold increase) [1]: < 0.1 µM
- EC1.5x for Smn protein expression [2]: **** (an EC1.5x≤0.3 μM is indicated by four stars (****))
- maximum fold (Fold) increase of Smn protein [2]: ***** (a fold increase >1.65 is indicated by five stars (*****))

SMILES: CCc1cc(-c2cc(=O)n3cc(N4CCN(C5CCC5)CC4)ccc3n2)cn2cc(C)nc12 [Compound 648, 7-(4-cyclobutylpiperazin-1-yl)-2-(8-ethyl-2-methylimidazo[1,2-a]pyridin-6-yl)-4H-pyrido[1,2-a]pyrimidin-4-one]
- melting point: 274 to 279 °C
- EC (1.5-fold increase) [1]: < 0.1 µM
- EC1.5x for Smn protein expression [2]: **** (an EC1.5x≤0.3 μM is indicated by four stars (****))
- maximum fold (Fold) increase of Smn protein [2]: ***** (a fold increase >1.65 is indicated by five stars (*****))
